Like-named read-outs stand apart in the source and are kept apart here.

In general, IC50 refers to the concentration that inhibits the measured activity by half. One may read the EC50 as the concentration needed to bring the measured effect to its halfway point.

Data set [1] addresses HRV3C (Human rhinovirus 14, UniProt P03303). Nature of the data set: HRV3C protease assay (duplex, SAMDI-MS). The class given is biochemical, HRV. The following applies: 30 mins preincubation. In short, it runs like this: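 Compounds are preincubated 30 min with the protease pair before substrate addition, and cleavage proceeds 30 min at room temperature. Product peptides are measured by SAMDI-MS relative to internal standards, with IC50 obtained from a four-parameter fit.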

Data set [2] concerns human beta-coronavirus OC43. Nature of the data set: microbe, parasite or virus in culture. The class given is cell-based. The following applies: Betacoronavirus 1, OC43, HeLa, 144 h, OC43 in HeLa cells, 6 days at 33° C., read-out: EC50.
Data set [3] in a line: Cytotoxicity plates without OC43 virus (cell-titer-glo). The class given is cell-based, human. The following applies: human; HeLa cells without OC43 virus, class symbols. In short, it runs like this:
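Run as a virus-free counterpart of the OC43 cytopathic-effect assay. Attached HeLa cells received compound dilutions in EMEM with 2% FBS and were kept 6 days at 33 °C. Cell viability was then measured by CellTiter-Glo luminescence.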

Data set [4] deals with SARS-CoV-2-GHB-03021/2020. Nature of the data set: SARS-CoV-2 Infection Model in Huh7 Cells. The data set is classed as cell-based. The following applies: Severe acute respiratory syndrome coronavirus 2, Huh-7, 96 h, SARS-CoV-2, day 4 p.i., MTS.
Data set [5] relates to SARS-CoV-2-GHB-03021/2020. Nature of the data set: microbe, parasite or virus in culture. The data set is classed as cell-based. The following applies: Severe acute respiratory syndrome coronavirus 2, Vero C1008, 96 h; read-out: VeroE6 + CP (EC50).
Data set [6] concerns the target T1, human cathepsin L (Homo sapiens, UniProt P07711).
T1 construct: purchased R&D Systems
Nature of the data set: cathepsin L assay. The following applies: 10 pM human cathepsin L, Z-FR-AMC 2 μM, class symbols. The data set is classed as biochemical. In short, it runs like this: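 Reactions began by adding 2 μM (final) Z-FR-AMC substrate to 10 pM human cathepsin L that had been preincubated 30 min with inhibitor. Kinetic AMC fluorescence at 355/460 nm over 30 min at 2-min intervals; four-parameter fitting gave IC50 values.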

Data set [7] is described as follows: in vitro. The following applies: human.
Data set [8] can be described thus: in vitro. The following applies: African green monkey, VeroE6 + CP (CC50), Vero E6-eGFP cells with CP-100356, absence of virus, MTS.
The target in data set [9] is 3CLpro (Severe acute respiratory syndrome coronavirus 2, UniProt P0DTD1). The experiment in a line: SARS-CoV-2 3CLpro protease assay (duplex, SAMDI-MS). The class given is biochemical. Further details: For the duplex assay, 3CLpro and HRV3C was added. The following applies: 30 mins preincubation, class symbols.
Where [10] appears, read: HRV3C, bound, read-out: HRV IC50.
The mark [11] stands for this setting: 3CLpro, read-out: SARS-Cov-2 IC50.
Setting [12] is: HRV3C, class symbols, read-out: HRV IC50.

Consider `O=C1NCC[C@H]1C[C@H](NC(=O)[C@@H]1[C@H]2CCC[C@H]2CN1C(=O)c1cc2c(Cl)ccc(C(F)(F)F)c2[nH]1)C(=O)CO` [Compound 117, (1S,3aR,6aS)-2-[4-chloro-7-(trifluoromethyl)-1H-indole-2-carbonyl]-N-[(2S)-4-hydroxy-3-oxo-1-[(3S)-2-oxopyrrolidin-3-yl]butan-2-yl]-hexahydro-1H-cyclopenta[c]pyrrole-1-carboxamide], for which the IC50 in data set [1] (setting [10]) was greater than 10 µM; in data set [6], no less than 10 µM; in [9] (setting [11]), 0.02 to 0.2 µM. The EC50 in data set [2] (class symbols) is 0.1 to 1 µM; in data set [4] (class symbols), less than 1 µM; in [5] it was less than 1 µM. The compound also yielded a CC50 at 6 days in data set [3] greater than 10 µM. In addition, the CC50 in [7] and in [8] (numeric bounds) was greater than 50 µM each time.
Regarding `COc1cccc2[nH]c(C(=O)N3C[C@@H]4CCC[C@@H]4[C@H]3C(=O)N[C@H](C=O)CC3CCNS3(=O)=O)cc12` (stereo partly drawn) [Compound 142, (1S,3aR,6aS)—N-((2S)-1-(1,1-dioxidoisothiazolidin-5-yl)-3-oxopropan-2-yl)-2-(4-methoxy-1H-indole-2-carbonyl)octahydrocyclopenta[c]pyrrole-1-carboxamide], the IC50 in [1] (HRV IC50, HRV3C, bound) is greater than 10 µM; in data set [6], no less than 10 µM; in data set [9] (setting [11]), 0.2 to 2 µM. Also, the figures for the EC50 in [2] (bound), in data set [4] (numeric bounds) and in data set [5] were greater than 10 µM, greater than 10 µM and greater than 50 µM, respectively. Besides, the CC50 at 6 days in data set [3] is greater than 10 µM. For the same compound, the CC50 in data set [7] is greater than 10 µM; in data set [8] (numeric bounds) it was greater than 50 µM.
As for `O=C(NC1CC1)C(=O)[C@H](C[C@@H]1CCNC1=O)NC(=O)[C@@H]1CC2(CCN1C(=O)c1cc3c(F)cccc3[nH]1)CC2` [Compound 164], the half-maximal inhibitory concentration (IC50) in data set [1] (setting [12]) was 0.2 to 2 µM; in data set [6], 1 to 10 µM; in data set [9] (setting [11]) it was less than 0.02 µM. The EC50 is 1 to 10 µM in data set [2] (class symbols), greater than 10 µM in [4] (numeric bounds) and 10 to 100 µM in data set [5]. This compound displayed a CC50 at 6 days in data set [3] greater than 10 µM. Further, the CC50 in [7] was 1 to 10 µM; in [8] (numeric bounds), greater than 50 µM.
For `COc1ccc2[nH]c(C(=O)N3C[C@@H]4CCC[C@@H]4[C@H]3C(=O)N[C@@H](C[C@@H]3CCNC3=O)C(=O)CO)cc2c1OC` [Compound 81, (1S,3aR,6aS)-2-(4,5-dimethoxy-1H-indole-2-carbonyl)-N-[(2S)-4-hydroxy-3-oxo-1-[(3S)-2-oxopyrrolidin-3-yl]butan-2-yl]-hexahydro-1H-cyclopenta[c]pyrrole-1-carboxamide], the IC50 in [1] (setting [12]) was 2 to 20 µM; in data set [6], no less than 10 µM; in [9] (setting [11]), 0.02 to 0.2 µM. The EC50 in data set [2] (class symbols) lay within 1 to 10 µM; in data set [4] (class symbols) it was 10 to 100 µM; in data set [5], 1 to 10 µM. The CC50 at 6 days in data set [3] was greater than 10 µM. Further, the CC50 in data set [7] and in data set [8] (numeric bounds) was greater than 50 µM throughout.
For the compound `COc1cccc2[nH]c(C(=O)N3C[C@]4(C[C@H]3C(=O)N[C@@H](C[C@@H]3CCCNC3=O)C(=O)COCc3ccccc3)CC4(F)F)cc12` [Compound 47A, (3S,6S)—N-[(2S)-4-(benzyloxy)-3-oxo-1-[(3S)-2-oxopiperidin-3-yl]butan-2-yl]-1,1-difluoro-5-(4-methoxy-1H-indole-2-carbonyl)-5-azaspiro[2.4]heptane-6-carboxamide], the IC50 was 2 to 20 µM in data set [1] (setting [12]), no less than 10 µM in [6] and 0.02 to 0.2 µM in data set [9] (setting [11]). Besides, the EC50 in [2] (class symbols) is less than 0.1 µM; in data set [4] (class symbols) it was 1 to 10 µM; in data set [5] it was 1 to 10 µM. The CC50 at 6 days in data set [3] was greater than 10 µM. In addition, the CC50 in [7] was greater than 10 µM; in data set [8] (numeric bounds), greater than 100 µM.
Take `O=C1NCC[C@H]1C[C@H](NC(=O)[C@@H]1[C@H]2CCC[C@H]2CN1C(=O)c1cc2c(OC(F)F)cccc2[nH]1)C(=O)CO` [Compound 87, (1S,3aR,6aS)-2-[4-(difluoromethoxy)-1H-indole-2-carbonyl]-N-[(2S)-4-hydroxy-3-oxo-1-[(3S)-2-oxopyrrolidin-3-yl]butan-2-yl]-hexahydro-1H-cyclopenta[c]pyrrole-1-carboxamide]: the IC50 in data set [1] (setting [12]) is 2 to 20 µM; in data set [6], no less than 10 µM; in data set [9] (setting [11]) it was less than 0.02 µM. Besides, the EC50 in data set [2] (class symbols) was less than 0.1 µM; in data set [4] (class symbols), 1 to 10 µM; in data set [5], less than 1 µM. This compound displayed a CC50 at 6 days in [3] greater than 10 µM. Moreover, the figures for the CC50 in [7] and in data set [8] (numeric bounds) were greater than 10 µM and greater than 100 µM, respectively.
For `O=C(NCc1ccccc1)C(=O)[C@H](C[C@@H]1CCNC1=O)NC(=O)[C@@H]1[C@H]2CCC[C@H]2CN1C(=O)c1nc2ccccc2[nH]1` [Compound 35], the values for the IC50 in data set [1] (setting [12]), in data set [6] and in data set [9] (setting [11]) were 2 to 20 µM, no less than 10 µM and 0.02 to 0.2 µM, respectively. Besides, the concentration for a half-maximal effect (EC50) in data set [2] (class symbols) was in the range of 1 to 10 µM; in data set [4] (class symbols), 10 to 100 µM; in data set [5], 10 to 100 µM. Moreover, in data set [3], the CC50 at 6 days was greater than 10 µM. In addition, the CC50 in [7] and in data set [8] (numeric bounds) was greater than 100 µM throughout.
Turning to `C=CC12CN(C(=O)c3cc4c(OC)cccc4[nH]3)C(C(=O)N[C@@H](C[C@@H]3CCNC3=O)C(=O)C(=O)NC3CC3)(C1)C2` [Compound 98], the IC50 in [1] (setting [12]) is 0.02 to 0.2 µM; in data set [6], no less than 10 µM; in data set [9] (setting [11]) it was 0.2 to 2 µM. The EC50 in data set [2] (bound) was greater than 10 µM; in data set [4] (numeric bounds), greater than 50 µM; in data set [5], 10 to 100 µM. This compound also returned a CC50 at 6 days in data set [3] greater than 10 µM. For the same compound, the results for the CC50 in data set [7] and in data set [8] (class symbols) were greater than 50 µM and greater than 10 µM, respectively.
`COc1cccc2[nH]c(C(=O)N3C[C@@H]4CCC[C@@H]4[C@H]3C(=O)N[C@@H](C[C@@H]3CCNC3=O)C(=O)C(=O)NC3CCOCC3)cc12` [Compound 104]: the half-maximal inhibitory concentration (IC50) in data set [1] (setting [12]) is 0.2 to 2 µM; in data set [6], no less than 10 µM; in data set [9] (setting [11]), 0.2 to 2 µM. Further, the EC50 in data set [2] (bound) is greater than 10 µM; in [4] (class symbols), 10 to 100 µM; in data set [5], 10 to 100 µM. The compound also registered a CC50 at 6 days in data set [3] greater than 10 µM. Moreover, the CC50 in [7] and in data set [8] (numeric bounds) was greater than 100 µM in each case.
Regarding `O=C1NCC[C@H]1C[C@H](NC(=O)[C@@H]1[C@H]2CCC[C@H]2CN1C(=O)c1cc2c(Cl)ccc(Oc3ccccc3)c2[nH]1)C(=O)CO` [Compound 137, (1S,3aR,6aS)-2-(4-chloro-7-phenoxy-1H-indole-2-carbonyl)-N-[(2S)-4-hydroxy-3-oxo-1-[(3S)-2-oxopyrrolidin-3-yl]butan-2-yl]-hexahydro-1H-cyclopenta[c]pyrrole-1-carboxamide], the IC50 in data set [1] (HRV IC50, HRV3C, bound) is greater than 10 µM; in [6], no less than 10 µM; in data set [9] (SARS-Cov-2 IC50, 3CLpro) it was 0.02 to 0.2 µM. Further, the concentration giving a half-maximal response (EC50) in data set [2] (class symbols) was less than 0.1 µM; in data set [4] (class symbols), less than 1 µM; in [5], 1 to 10 µM. In [3], the CC50 at 6 days was greater than 10 µM. The results for the CC50 in data set [7] and in data set [8] (numeric bounds) were greater than 10 µM and greater than 50 µM, respectively.
As for `COc1cc(Cl)cc2[nH]c(C(=O)N3C[C@@H]4CCC[C@@H]4[C@H]3C(=O)N[C@@H](C[C@@H]3CCNC3=O)C(=O)CO)cc12` [Compound 88, (1S,3aR,6aS)-2-(6-chloro-4-methoxy-1H-indole-2-carbonyl)-N-[(2S)-4-hydroxy-3-oxo-1-[(3S)-2-oxopyrrolidin-3-yl]butan-2-yl]-hexahydro-1H-cyclopenta[c]pyrrole-1-carboxamide], the values for the IC50 in [1] (setting [12]), in data set [6] and in [9] (setting [11]) were 2 to 20 µM, no less than 10 µM and less than 0.02 µM, respectively. Also, the EC50 in data set [2] (class symbols) is less than 0.1 µM; in data set [4] (class symbols), less than 1 µM; in data set [5], less than 1 µM. The CC50 at 6 days in data set [3] is greater than 10 µM. For the same compound, the CC50 in data set [7] was greater than 10 µM; in data set [8] (numeric bounds), greater than 100 µM.
With `O=C1NCC[C@H]1C[C@H](NC(=O)[C@@H]1[C@H]2CCC[C@H]2CN1C(=O)c1cc2c(Cl)cc(-c3ccccc3)cc2[nH]1)C(=O)CO` [Compound 120, (1S,3aR,6aS)-2-(4-chloro-6-phenyl-1H-indole-2-carbonyl)-N-[(2S)-4-hydroxy-3-oxo-1-[(3S)-2-oxopyrrolidin-3-yl]butan-2-yl]-hexahydro-1H-cyclopenta[c]pyrrole-1-carboxamide], the values for the IC50 in [1] (setting [10]), in data set [6] and in [9] (setting [11]) were greater than 10 µM, no less than 10 µM and less than 0.02 µM, respectively. Moreover, the EC50 is less than 0.1 µM in data set [2] (class symbols), less than 1 µM in [4] (class symbols) and less than 1 µM in [5]. Moreover, the CC50 at 6 days in data set [3] is greater than 10 µM. Besides, the CC50 is 1 to 10 µM in [7] and greater than 10 µM in data set [8] (class symbols).

The values above are taken from patent publication US11952365B2, “Anti-viral compounds” (Aligos Therapeutics, Inc., priority 2020, dated 2024).
